# Assay results published in patent US10696973B2, “Inducible eukaryotic expression system” (Regeneron Pharmaceuticals, Inc., priority 2002, dated 2020).
# Tests used:
# Type in all cases: cell-based
# [1] = biological target: T1, TetR-ERLBDT2 regulatory fusion protein (UniProt P03372+P04483, G400V/L544A/M543A); test: hFcγRI expression regulated by TetR-ERLBDT2 in CHO K1-FcR/pTE313 clones, FITC-hFc staining and flow cytometry; conditions: clone D124 (pool C12); OHT present without Dox
# T1 construct: 11 amino acid linker […]; expressed in transfected cells; host or cells: CHO K1-FcR cells (CHO K1 with pTE158) stably transfected with pTE313
# T1 sequence (P04483+P03372 fused P03372:G400V/P03372:M543A/P03372:L544A): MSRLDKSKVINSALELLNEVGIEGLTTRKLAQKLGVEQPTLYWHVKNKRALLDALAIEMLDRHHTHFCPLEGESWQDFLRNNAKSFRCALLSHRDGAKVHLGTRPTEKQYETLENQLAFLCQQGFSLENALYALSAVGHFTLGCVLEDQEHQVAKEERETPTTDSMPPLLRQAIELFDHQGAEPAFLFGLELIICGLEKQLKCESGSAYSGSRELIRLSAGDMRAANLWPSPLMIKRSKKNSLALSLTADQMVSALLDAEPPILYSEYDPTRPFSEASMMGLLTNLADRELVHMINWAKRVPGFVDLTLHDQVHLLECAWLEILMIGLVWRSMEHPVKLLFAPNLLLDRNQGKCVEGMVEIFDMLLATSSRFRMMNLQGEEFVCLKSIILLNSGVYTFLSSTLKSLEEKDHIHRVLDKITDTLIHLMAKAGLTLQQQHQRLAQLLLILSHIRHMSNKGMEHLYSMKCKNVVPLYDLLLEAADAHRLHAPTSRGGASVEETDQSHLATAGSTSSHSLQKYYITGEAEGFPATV
# Protocol: The cells were placed in the culture medium (10% fetal bovine serum, 90% Ham's F-12, 2 mM L-glutamine; all reagents were from Life Technologies, Rockville, Md.) containing 500 G418 (Life Technologies) for 12 days. […] Briefly, cells grown on 10 cm culture plates were washed once with Dulbecco's phosphate-buffered saline (PBS) without calcium chloride and magnesium chloride (Life Technologies). Two milliliters of 0.25% trypsin (Life Technologies) was added to each plate and incubated at 37° C. for 4-5 min. The plates were swirled until the cells detached from the plate. Four milliliters of culture medium was immediately added to each plate of the detached cells. […] Washed cells capable of binding FITC-hFc were measured by flow cytometry on a MOFLO™ cell sorter (Cytomation; Fort Collins, Colo.). […] The total pool of fluorescent cells from the G418-resistant population was collected by flow cytometry, expanded then analyzed by flow cytometry for expression of hFcγRI. […]
# Cells were incubated for three days then stained with FITC-hFc to detect the presence of hFcγRI. The top 60% of hFcγRI-positive cells from the culture induced with 1 μg/ml Dox were isolated to yield pool B 11, and cells with the lowest 30% fluorescence were isolated from cells grown in medium without Dox to yield pool B 12. […]
# [2] = biological target: T2, Arc2-ERLBDT2 fusion protein (Homo sapiens, UniProt P03372, G400V/L544A/M543A); test: Time course of 13SC1132 induction in clone C110 after removal of OHT, mean fluorescence of cell surface-displayed protein; conditions: clone C110 grown in 200 nM OHT, then washed; measured 3, 6 and 9 days after removal
# T2 construct: expressed in transfected cells; host or cells: CHO K1/pTE534 cells (A2) or RGC12 cells, a CHO K1 derivative (A3), stably transfected with pTE529
# T2 sequence (P03372 with tags, fused parts or gaps G400V/M543A/L544A): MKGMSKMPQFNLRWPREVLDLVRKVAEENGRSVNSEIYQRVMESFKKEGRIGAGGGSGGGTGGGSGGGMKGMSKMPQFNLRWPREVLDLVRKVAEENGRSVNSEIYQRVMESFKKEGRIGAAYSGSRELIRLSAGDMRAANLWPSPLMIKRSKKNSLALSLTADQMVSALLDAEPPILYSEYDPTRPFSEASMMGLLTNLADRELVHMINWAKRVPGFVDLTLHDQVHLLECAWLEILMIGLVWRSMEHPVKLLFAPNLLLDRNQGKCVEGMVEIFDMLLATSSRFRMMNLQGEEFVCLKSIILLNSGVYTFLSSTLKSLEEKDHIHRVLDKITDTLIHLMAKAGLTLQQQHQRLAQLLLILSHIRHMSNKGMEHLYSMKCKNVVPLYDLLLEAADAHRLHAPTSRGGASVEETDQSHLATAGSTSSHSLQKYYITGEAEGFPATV
# Protocol: RGC12 cells (2×10^6) were transfected with 5 μg pTE529 encoding the Arc-ERLBDT2 protein driven by a ubiquitin promoter (FIG. 9) using Lipofectamine™ as described above. The cells were placed in the culture medium (10% fetal bovine serum, 90% Ham's F-12, 2 mM L-glutamine; all reagents were from lnvitrogen Life Technologies, Carlsbad, Calif.) containing 10 μg/ml puromycin (CalBiochem) for 14 days. Cells resistant to puromycin, expressing the Arc2-ERLBDT2 fusion protein, were then transfected with pTE689 encoding protein of interest […] (FIG. 8) as described above except the culture medium contained 200 nM OHT. […] Cells that secreted the highest levels of 13SC1132 as measured by 13SC1132 complexed with FcγRI on the cell surface (top 5%) were isolated by flow cytometry on a MOFLO™ cell sorter. Cells were grown in the presence of OHT for 7 days, and treated for screening as described above, but the cells with the lowest 5% cell surface fluorescence were isolated in order to enrich for clones with regulated expression of 13SC1132. Cells were then grown in the absence of OHT, treated for flow cytometry, and single cells with the highest 0.1% fluorescence in this population were isolated, expanded, and screened for 13SC1132 expression in the absence of OHT and tight regulation in the presence of OHT. […]
# [3] = biological target: T2, Arc2-ERLBDT2 fusion protein; test: hFcγRI expression regulated by Arc2-ERLBDT2 in CHO K1/pTE534 cells transfected with pTE529, FITC-hFc staining and flow cytometry
# Protocol: CHO K1 cells (2×10^6) were transfected with pTE534 using Lipofectamine™ as described above. The cells were placed in the culture medium (10% fetal bovine serum, 90% Ham's F-12, 2 mM L-glutamine; all reagents were from Invitrogen Life Technologies, Carlsbad, Calif.) containing 400 μg/ml G418 (Invitrogen Life Technologies) for 12 days. Cells resistant to G418 were trypsinized, pooled, and stained with 2 μg/ml of FITC-conjugated human IgG, Fc fragment (FITC-hFc) as described above. […] Cells that expressed hFcγRI bound FITC-hFc and were isolated based on their fluorescence by flow cytometry on a MOFLO™ cell sorter. Cells with the highest 3% fluorescence in this population were isolated, pooled, and expanded. This hFcγRI-positive pool was enriched by repeating the cell surface staining with FITC-hFc and sorting the top 30% most fluorescent cells in the population to yield pool B. Cells in pool B that were among the top 20% expressing hFcγRI were isolated to yield pool C. Pool C2 (CHOK1/pTE534) was used to generate inducible cell lines regulated by Arc-ERLBDT2.
# CHO K1/pTE534 cells (2×10^6/dish) were transfected with either pRG985, an empty vector, or pTE529 using Lipofectamine™. […] The cells were stained with FITC-hFc as described above and analyzed by flow cytometry. […] This pool was expanded in the presence of OHT for 10 days, stained for hFcγRI expression and analyzed by flow cytometry. […]
substance,measurement,setting,value
4-hydroxytamoxifen [OHT],level of hFcγRI expression,[1],no detectable level of hFcγRI
same,time after OHT removal until full induction of 13SC1132 expression,[2],6 days
same,level of hFcγRI expression,"[3]; clone C17, OHT present in the medium",No detectable level of hFcγRI
same,cells in pool that did not express hFcγRI,[3]; sorted pool expanded in the presence of OHT for 10 days,Over 70%
